Results: the NIST ThermoML archive (doi:10.1016/j.fluid.2014.09.014)

Test: refractive index (other wavelength) (dimensionless); xn = mol fraction of the nth substance listed
Conditions: 101 kPa, Liquid, Standard Abbe refractometry

CC(C)OC(C)C [diisopropyl ether] + CO
refractive index
Conditions | Wavelength=40.47 nm | Wavelength=435.8 nm | Wavelength=486.1 nm | Wavelength=546.1 nm | Wavelength=587.6 nm | Wavelength=589.3 nm | Wavelength=632.8 nm | Wavelength=644 nm | Wavelength=706.5 nm
293.15 K, x2 = 0 | 1.37888 | 1.37585 | 1.37241 | 1.36955 | 1.36806 | 1.36801 | 1.36674 | 1.36644 | 1.36501
293.15 K, x2 = 0.0423 | 1.37892 | 1.37589 | 1.37246 | 1.3696 | 1.36811 | 1.36806 | 1.36678 | 1.36648 | 1.36504
293.15 K, x2 = 0.0424 | 1.37884 | 1.37583 | 1.37238 | 1.36953 | 1.36803 | 1.36798 | 1.3667 | 1.3664 | 1.36476
293.15 K, x2 = 0.082 | 1.37887 | 1.37585 | 1.37242 | 1.36956 | 1.36807 | 1.36802 | 1.36674 | 1.36644 | 1.365
293.15 K, x2 = 0.0822 | 1.37872 | 1.37569 | 1.37228 | 1.36942 | 1.36795 | 1.36789 | 1.36663 | 1.36633 | 1.36487
293.15 K, x2 = 0.1171 | 1.37858 | 1.37556 | 1.37214 | 1.3693 | 1.36783 | 1.36777 | 1.36649 | 1.36619 | 1.36476
293.15 K, x2 = 0.1271 | 1.37862 | 1.3756 | 1.37217 | 1.36933 | 1.36784 | 1.36779 | 1.36651 | 1.36622 | 1.36479
293.15 K, x2 = 0.1827 | 1.37814 | 1.37514 | 1.37173 | 1.36889 | 1.36741 | 1.36736 | 1.36608 | 1.36579 | 1.36436
293.15 K, x2 = 0.2162 | 1.37791 | 1.37492 | 1.37149 | 1.36867 | 1.36719 | 1.36713 | 1.36585 | 1.36556 | 1.36414
293.15 K, x2 = 0.251 | 1.37812 | 1.37513 | 1.37172 | 1.36888 | 1.36741 | 1.36735 | 1.36609 | 1.36579 | 1.36436
293.15 K, x2 = 0.3298 | 1.37709 | 1.37411 | 1.37071 | 1.36792 | 1.36645 | 1.3664 | 1.36512 | 1.36482 | 1.3634
293.15 K, x2 = 0.3577 | 1.37556 | 1.37264 | 1.36925 | 1.36647 | 1.365 | 1.36494 | 1.36367 | 1.36338 | 1.36197
293.15 K, x2 = 0.4497 | 1.37463 | 1.3717 | 1.36834 | 1.36558 | 1.36412 | 1.36407 | 1.3628 | 1.36251 | 1.3611
293.15 K, x2 = 0.4525 | 1.37517 | 1.37223 | 1.36886 | 1.36609 | 1.36462 | 1.36457 | 1.3633 | 1.36301 | 1.3616
293.15 K, x2 = 0.522 | 1.37278 | 1.36987 | 1.36658 | 1.36382 | 1.36239 | 1.36233 | 1.36109 | – | 1.35939
293.15 K, x2 = 0.5543 | 1.37252 | 1.36963 | 1.36633 | 1.36357 | 1.36214 | 1.36209 | 1.36085 | 1.36055 | 1.35915
293.15 K, x2 = 0.609 | 1.36927 | 1.3664 | 1.36316 | 1.3644 | 1.35903 | 1.35897 | 1.35774 | 1.35745 | 1.35606
293.15 K, x2 = 0.6529 | 1.36767 | 1.36484 | 1.36161 | 1.35891 | 1.35751 | 1.35746 | 1.35624 | 1.35595 | 1.35456
293.15 K, x2 = 0.7504 | 1.36362 | 1.36086 | 1.35769 | 1.35503 | 1.35365 | 1.3536 | 1.3524 | 1.35211 | –
293.15 K, x2 = 0.804 | 1.35916 | 1.35647 | 1.35338 | 1.35075 | 1.34938 | 1.34933 | 1.34816 | 1.34788 | 1.34652
293.15 K, x2 = 0.807 | 1.35902 | 1.35632 | 1.35323 | 1.3506 | 1.34924 | 1.34919 | 1.34801 | 1.34773 | 1.34638
293.15 K, x2 = 0.8727 | 1.35351 | 1.35088 | 1.34784 | 1.34528 | 1.34394 | 1.34389 | 1.34273 | 1.34246 | 1.34113
293.15 K, x2 = 0.9233 | 1.34636 | 1.34384 | 1.34087 | 1.33839 | 1.33708 | 1.33703 | 1.3359 | 1.33564 | 1.33435
293.15 K, x2 = 0.9253 | 1.34824 | 1.34571 | 1.34275 | 1.34023 | 1.33891 | 1.33886 | 1.33772 | 1.33746 | 1.33617
293.15 K, x2 = 0.9527 | 1.34496 | 1.34296 | 1.33953 | 1.33705 | 1.33574 | 1.33569 | 1.33457 | 1.33431 | 1.33303
293.15 K, x2 = 0.9773 | 1.34138 | 1.33894 | 1.33601 | 1.33356 | 1.33228 | 1.33223 | 1.33112 | 1.33086 | 1.32963
293.15 K, x2 = 0.989 | 1.34018 | 1.33775 | 1.33487 | 1.33242 | 1.33114 | 1.3311 | 1.33 | 1.32975 | 1.32951
293.15 K, x2 = 0.9964 | 1.33872 | 1.33631 | 1.33342 | 1.33098 | 1.3297 | 1.32965 | 1.32856 | 1.32831 | 1.32708
298.15 K, x2 = 0 | 1.37607 | 1.37308 | 1.36965 | 1.36683 | 1.36535 | – | – | – | –
298.15 K, x2 = 0.0423 | 1.37664 | 1.37305 | 1.36963 | 1.36681 | 1.36534 | – | – | – | –
298.15 K, x2 = 0.0424 | 1.37602 | 1.37303 | 1.36961 | 1.36679 | 1.36531 | – | – | – | –
298.15 K, x2 = 0.082 | 1.37599 | 1.373 | 1.36958 | 1.36677 | 1.36528 | – | – | – | –
298.15 K, x2 = 0.0822 | 1.37598 | 1.373 | 1.36957 | 1.36678 | 1.3653 | – | – | – | –
298.15 K, x2 = 0.1171 | 1.3758 | 1.37283 | 1.36942 | 1.36661 | 1.36514 | – | – | – | –
298.15 K, x2 = 0.1271 | 1.37584 | 1.37286 | 1.36944 | 1.36664 | 1.36515 | – | – | – | –
298.15 K, x2 = 0.1827 | 1.37543 | 1.37246 | 1.36905 | 1.36626 | 1.36478 | – | – | – | –
298.15 K, x2 = 0.2162 | 1.37664 | 1.37305 | 1.36963 | 1.36681 | 1.36534 | – | – | – | –
298.15 K, x2 = 0.251 | 1.37352 | 1.37234 | 1.36895 | 1.36616 | 1.3647 | – | – | – | –
298.15 K, x2 = 0.3298 | 1.37448 | 1.37153 | 1.36815 | 1.36537 | 1.36391 | – | – | – | –
298.15 K, x2 = 0.3577 | 1.37299 | 1.37006 | 1.36672 | 1.36396 | 1.36251 | – | – | – | –
298.15 K, x2 = 0.4497 | 1.37205 | 1.36914 | 1.36584 | 1.36306 | 1.36163 | – | – | – | –
298.15 K, x2 = 0.4525 | 1.37262 | 1.36969 | 1.36637 | 1.3636 | – | – | – | – | –
298.15 K, x2 = 0.522 | 1.37025 | 1.36737 | 1.36409 | 1.36134 | – | – | – | – | –
298.15 K, x2 = 0.5543 | 1.3698 | 1.36692 | 1.36368 | 1.36093 | – | – | – | – | –
298.15 K, x2 = 0.609 | 1.36677 | 1.36396 | – | 1.35803 | – | – | – | – | –
298.15 K, x2 = 0.6529 | 1.36523 | 1.36244 | 1.35923 | 1.35655 | – | – | – | – | –
298.15 K, x2 = 0.7504 | 1.36122 | 1.35846 | 1.35533 | 1.3527 | – | – | – | – | –
298.15 K, x2 = 0.804 | 1.35681 | 1.35412 | 1.35108 | 1.34846 | – | – | – | – | –
298.15 K, x2 = 0.807 | 1.3567 | 1.35401 | 1.35096 | 1.34834 | – | – | – | – | –
298.15 K, x2 = 0.8727 | 1.35132 | 1.34872 | 1.34572 | 1.34316 | – | – | – | – | –
298.15 K, x2 = 0.9233 | 1.34416 | 1.34165 | 1.33873 | 1.33624 | – | – | – | – | –
298.15 K, x2 = 0.9253 | 1.34607 | 1.34355 | 1.3406 | 1.33811 | – | – | – | – | –
298.15 K, x2 = 0.9527 | 1.34281 | 1.34033 | 1.3374 | 1.33494 | – | – | – | – | –
298.15 K, x2 = 0.9773 | 1.33922 | 1.3368 | 1.3339 | 1.33146 | – | – | – | – | –
298.15 K, x2 = 0.989 | 1.33798 | 1.3356 | 1.3327 | 1.33028 | – | – | – | – | –
298.15 K, x2 = 0.9964 | 1.33656 | 1.3342 | 1.33128 | 1.32888 | – | – | – | – | –
